Values of other authors in US12280058B2, “Gasotransmitter metabolites and Alzheimer's disease” (Board of Supervisors of Louisiana State University and …, priority 2020, dated 2025).

Key:
[1] = molecular target: CSE (Homo sapiens, UniProt P32929); conditions: read-out: IC50 (CSE inhibitor)
[2] = system: infarct; conditions: administration

Sequence of CSE (P32929 whole entry, species assumed): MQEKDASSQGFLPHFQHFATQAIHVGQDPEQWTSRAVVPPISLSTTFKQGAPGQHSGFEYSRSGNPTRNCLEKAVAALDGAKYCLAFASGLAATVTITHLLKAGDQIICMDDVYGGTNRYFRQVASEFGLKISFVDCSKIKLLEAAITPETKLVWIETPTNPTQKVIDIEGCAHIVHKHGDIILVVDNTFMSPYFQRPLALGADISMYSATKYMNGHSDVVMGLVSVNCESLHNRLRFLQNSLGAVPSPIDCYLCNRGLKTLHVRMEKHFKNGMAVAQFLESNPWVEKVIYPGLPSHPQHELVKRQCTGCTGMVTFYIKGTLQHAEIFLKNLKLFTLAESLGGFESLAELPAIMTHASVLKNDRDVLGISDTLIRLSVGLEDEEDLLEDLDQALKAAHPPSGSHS

IC50 [1] | SMILES | infarct volume / size of infarct [2]
30 µM | CCOc1ccc2nc(Sc3nc(Nc4cccc([N+](=O)[O-])c4)nc(Nc4cc(OC)ccc4OC)n3)sc2c1 [compound 1157172, 2-[(4-(2,5-dimethoxyanilino)-6-(3-nitroanilino)-1,3,5-triazin-2-yl)sulfanyl]-6-ethoxy-1,3-benzothiazole] | –
40 µM | C#CC[C@H](N)C(=O)O | –
< 1 µM | NCCO/C=C/[C@H](N)C(=O)O [L-aminoethoxyvinylglycine] | –
– | S [sodium hydrosulfide] | increased infarct volume
